Patent US12404249B2, “Heterocyclic derivatives and use thereof” (C&C RESEARCH LABORATORIES, priority 2018, dated 2025)

Columns and labels:
[1] = system: prostate cancer cell line (LNCap); experiment: Cell growth inhibition assay (Celltiter Glo); assay type: cell-based; settings: Homo sapiens, LNCap cells, 120 hours incubation
Description: Cancer cell inhibitory effects by the compounds of the Examples were evaluated as follows. The prostate cancer cell line (LNCap) used was cultured under the condition according to the vendor's recommendation. LNCap was dispensed into a 96-well plate at 10,000 cells/well. After incubation under the condition of 37° C. and 5% CO2 for 24 hours, the Example compounds of 50 mM DMSO stock were diluted to various concentrations and treated to the 96-well plate containing cells. After treatment of the Example compounds, LNCap cells were incubated in an incubator (37° C., 5% CO2) for 120 hours. After each incubation time, the 96-well plate was observed under a microscope to record the presence or absence of drug precipitation and specificities, and the 96-well plate was kept at room temperature for 30 minutes. Then, after addition of 20 μL of Celltiter Glo solution, the 96-well plate was well shaken for 30 minutes. The growth inhibitory activity was measured on microLUMA LB96P (BERTHOLD) instrument using Glo-vial protocol. As a negative control, a 96 well-plate in which culture medium was added but cells were not plated was used. As a positive control, a 96 well-plate in which cells were plated and 0.1% DMSO instead of drugs was added was used. The results of growth inhibitory effects of the Example compounds on prostate cancer cell line are represented in Table 2.

STAT3 = molecular target: T1, STAT3 (Homo sapiens, UniProt P40763); experiment: STAT3 activation inhibition assay (reporter gene assay, LNcaP stable cell line, IL-6 stimulated); assay type: cell-based; settings: LNcaP stable cell line [plasmid STAT3-TA-luc], IL-6 10 ng/mL, 48 hours, luciferase activity; read-out: IC50 (μM) pSTAT3
T1 construct: endogenous in cells; host or cells: LNCaP (human prostate cancer) stably carrying pSTAT3-TA-luc reporter plasmid
Description: Cancer cell lines used for evaluating the compounds of the Examples were purchased from ATCC (American Type Culture Collection) or KCLB (Korean Cell Line Bank), and cultured according to the vendor's recommendation. The human prostate cancer cell line stably expressing the STAT3 promoter (LNcaP stable cell line [plasmid STAT3-TA-luc])—which was prepared to evaluate the inhibitory effect of the compounds of the Examples against dimerization of STAT3—was cultured in RPMI1640 (Cat no. 11875, Gibco), 10% fetal bovine serum (Cat no. SH30071.03, Hyclone) and 150 μg/mL G418 solution (Cat no. 04 727 894 001, Roche).
The reporter gene assay of LNcap stable cell line was carried out by the use of RPMI 1640 medium containing 3% DCC-FBS (without G-418). The cell line was dispensed into two (2) white 96-well plates at 30,000 cells/well/50 μL. The cell line was incubated for 24 hours under the condition of 37° C. and 5% CO2, and then the Example compounds of 50 mM DMSO stock were diluted to various concentrations and treated to two (2) white 96-well plates containing cells. Then, IL-6 was treated to a final concentration of 10 ng/mL. After the treatment of Example compounds and IL-6, the cells were cultured for 48 hours under the condition of 37° C. and 5% CO2. After 48 hours, the 96-well plates were observed under a microscope to record the presence or absence of drug precipitation and specificities, and the 96-well plates were kept at room temperature for 30 minutes. Then, in the case of the first 96-well plate, the culture medium on the plate was removed to measure the luciferase activity, and treated with passive lysis buffer at 20 µL/well and shaken for 30 minutes. The luciferase activity was measured on microLUMA LB96P (BERTHOLD) or Centro XS LB 960 (BERTHOLD) instrument using Luciferase assay system (Cat No. E1501, Promega Corporation). In the case of the second 96-well plate, 20 μL of Glo-mix solution was added to measure cytotoxicity by the compounds of the Examples, and the plate was well shaken for 10 minutes and analyzed on microLUMA LB96P (BERTHOLD) instrument using Glo-vial protocol. As a negative control, a 96 well-plate in which culture medium was added but cells were not plated was used. As a positive control, a 96 well-plate in which cells were plated and 0.1% DMSO and culture medium containing stimulation were added was used.
The results of evaluating the inhibitory effects of the compounds of the Examples against dimerization of STAT3 and STAT1 via STAT3 and STAT1 reporter gene assay are represented in Table 1.

T1 sequence (P40763 whole entry): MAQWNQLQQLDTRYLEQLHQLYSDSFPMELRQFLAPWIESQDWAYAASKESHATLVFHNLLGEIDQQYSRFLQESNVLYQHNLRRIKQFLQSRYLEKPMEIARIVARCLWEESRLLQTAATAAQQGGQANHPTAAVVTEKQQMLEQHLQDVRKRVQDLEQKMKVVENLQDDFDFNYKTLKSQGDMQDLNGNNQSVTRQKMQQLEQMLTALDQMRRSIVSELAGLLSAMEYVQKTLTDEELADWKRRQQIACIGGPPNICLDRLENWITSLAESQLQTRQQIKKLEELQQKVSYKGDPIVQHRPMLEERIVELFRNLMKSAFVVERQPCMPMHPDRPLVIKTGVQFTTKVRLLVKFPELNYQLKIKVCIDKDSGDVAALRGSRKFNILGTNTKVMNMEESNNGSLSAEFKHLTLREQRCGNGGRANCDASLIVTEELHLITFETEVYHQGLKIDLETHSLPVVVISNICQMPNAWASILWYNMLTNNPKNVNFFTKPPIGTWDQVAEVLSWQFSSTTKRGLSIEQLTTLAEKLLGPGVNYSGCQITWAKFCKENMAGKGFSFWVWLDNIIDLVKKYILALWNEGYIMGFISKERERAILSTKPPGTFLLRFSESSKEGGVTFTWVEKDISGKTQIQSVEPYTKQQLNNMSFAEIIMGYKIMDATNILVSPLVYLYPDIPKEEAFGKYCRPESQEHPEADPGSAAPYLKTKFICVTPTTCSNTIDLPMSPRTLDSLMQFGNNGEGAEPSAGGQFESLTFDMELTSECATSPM

Compound	IC50 [1]	IC50 (STAT3)
COc1cccc2c(NCCc3ccc([N+](=O)[O-])cc3)cc(Cl)nc12 [Example 10, 2-chloro-8-methoxy-N-(4-nitrophenethyl)quinolin-4-amine]	2.6 µM	3.9 µM
O=[N+]([O-])c1ccc(CCNc2ccnc3ccccc23)cc1 [Example 17, N-(4-nitrophenethyl)quinolin-4-amine]	4.7 µM	1.6 µM
CCOC(=O)c1ccc2nc(Cl)cc(NCCc3ccc([N+](=O)[O-])cc3)c2c1 [Example 16, ethyl 2-chloro-4-((4-nitrophenethyl)amino)quinolin-6-carboxylate]	21.8 µM	> 50 µM
O=[N+]([O-])c1ccc(CCNc2ncnc3ccc(F)cc23)cc1 [Example 61, 6-fluoro-N-(4-nitrophenethyl)quinazolin-4-amine]	0.19 µM	0.053 µM
Cc1cccc2c(NCCc3ccc([N+](=O)[O-])cc3)cc(Cl)nc12 [Example 15, 2-chloro-8-methyl-N-(4-nitrophenethyl)quinolin-4-amine]	1.6 µM	3.1 µM
NNC(=O)c1ccc2nc(Cl)cc(NCCc3ccc([N+](=O)[O-])cc3)c2c1 [Example 44, 2-chloro-4-((4-nitrophenethyl)amino)quinolin-6-carbohydrazide]	> 50 µM	> 50 µM
NC(=O)COc1ccc2nc(Cl)cc(NCCc3ccc([N+](=O)[O-])cc3)c2c1 [Example 39, 2-((2-chloro-4-((4-nitrophenethyl)amino)quinolin-6-yl)oxy)acetamide]	> 50 µM	> 50 µM
O=[N+]([O-])c1ccc(CCNc2cc(Cl)nc3ccc(N4CCOCC4)cc23)cc1 [Example 28, 2-chloro-6-morpholino-N-(4-nitrophenethyl)quinolin-4-amine 2,2,2-trifluoroacetate]	44.1 µM	32.3 µM
O=[N+]([O-])c1ccc(CCNc2cc(C(F)(F)F)nc3ccccc23)cc1 [Example 49, N-(4-nitrophenethyl)-2-(trifluoromethyl)quinolin-4-amine]	14.1 µM	5.6 µM
O=[N+]([O-])c1ccc(CCNc2cc(Cl)nc3cccc(F)c23)cc1 [Example 29, 2-chloro-5-fluoro-N-(4-nitrophenethyl)quinolin-4-amine]	2.5 µM	0.64 µM
NC(=O)c1ccc2nc(Cl)cc(NCCc3ccc([N+](=O)[O-])cc3)c2c1 [Example 41, 2-chloro-4-((4-nitrophenethyl)amino)quinolin-6-carboxamide]	> 50 µM	9.8 µM
Nc1ccc(CCNc2cc(Cl)nc3ccccc23)cc1 [Example 6, N-(4-aminophenethyl)-2-chloroquinolin-4-amine]	0.69 µM	0.71 µM
O=C(O)c1ccc2nc(Cl)cc(NCCc3ccc([N+](=O)[O-])cc3)c2c1 [Example 40, 2-chloro-4-((4-nitrophenethyl)amino)quinolin-6-carboxylic acid]	> 50 µM	> 50 µM
O=[N+]([O-])c1ccc(CCNc2cc(Cl)nc3ccccc23)cc1 [Example 1, 2-chloro-N-(4-nitrophenethyl)quinolin-4-amine]	3.5 µM	2.6 µM
NS(=O)(=O)c1ccc(CCN(CCc2ccccc2)c2cc(Cl)nc3ccccc23)cc1 [Example 4, 4-(2-((2-chloroquinolin-4-yl)(phenethyl)amino)ethyl)benzenesulfonamide]	> 50 µM	20.9 µM
O=[N+]([O-])c1ccc(CCNc2cc(Cl)nc3ccc(Oc4ccccc4)cc23)cc1 [Example 33, 2-chloro-N-(4-nitrophenethyl)-6-phenoxyquinolin-4-amine]	> 50 µM	6 µM

The next lines start with the values.

IC50 [1]	IC50 (STAT3)	Compound
1.4 µM	0.62 µM	Cc1cnc2ccccc2c1NCCc1ccc(NS(C)(=O)=O)cc1 [Example 72, N-(4-(2-((3-methylquinolin-4-yl)amino)ethyl)phenyl)methanesulfonamide]
33 µM	35.9 µM	CS(=O)(=O)Nc1ccc(CCNc2nccc3occc23)cc1 [Example 73, N-(4-(2-(furo[3,2-c]pyridin-4-ylamino)ethyl)phenyl)methanesulfonamide]
0.23 µM	0.063 µM	CS(=O)(=O)Nc1ccc(CCNc2ncnc3ccc(F)cc23)cc1 [Example 64, N-(4-(2-((6-fluoroquinazolin-4-yl)amino)ethyl)phenyl)methanesulfonamide]
18.9 µM	33.7 µM	CS(=O)(=O)Nc1ccc(CCNc2ccnc3c(F)cccc23)cc1 [Example 46, N-(4-(2-((8-fluoroquinolin-4-yl)amino)ethyl)phenyl)methanesulfonamide]
6 µM	4.3 µM	CS(=O)(=O)Nc1ccc(CCNc2nccc3ccccc23)cc1 [Example 75, N-(4-(2-(isoquinolin-1-ylamino)ethyl)phenyl)methanesulfonamide]
0.27 µM	0.076 µM	CS(=O)(=O)Nc1ccc(CCNc2ncnc3sccc23)cc1 [Example 68, N-(4-(2-(thieno[2,3-d]pyrimidin-4-ylamino)ethyl)phenyl)methanesulfonamide]
0.13 µM	0.046 µM	CS(=O)(=O)Nc1ccc(CCNc2ncnc3scnc23)cc1 [Example 69, N-(4-(2-(thiazolo[5,4-d]pyrimidin-7-ylamino)ethyl)phenyl)methanesulfonamide]
13.1 µM	3.9 µM	CS(=O)(=O)Nc1ccc(CCNc2ncc(Cl)c3ccccc23)cc1 [Example 74, N-(4-(2-((4-chloroisoquinolin-1-yl)amino)ethyl)phenyl)methanesulfonamide]
0.093 µM	0.023 µM	O=[N+]([O-])c1ccc(CCNc2ncnc3ccccc23)cc1 [Example 36, N-(4-nitrophenethyl)quinazolin-4-amine]
0.81 µM	0.85 µM	CS(=O)(=O)N(O)c1ccc(CCNc2cc(Cl)nc3ccccc23)cc1 [Example 2, N-(4-(2-((2-chloroquinolin-4-yl)amino)ethyl)phenyl)-N-hydroxymethanesulfonamide]
29.5 µM	14 µM	O=S(=O)(Nc1ccc(CCNc2ncnc3ccccc23)cc1)C(F)(F)F [Example 60, 1,1,1-trifluoro-N-(4-(2-(quinazolin-4-ylamino)ethyl)phenyl)methanesulfonamide]
20.9 µM	9.6 µM	CS(=O)(=O)Nc1ccc(CCNc2nccc3nccnc23)cc1 [Example 71, N-(4-(2-(pyrido[3,4-b]pyrazin-5-ylamino)ethyl)phenyl)methanesulfonamide]
1.9 µM	0.75 µM	CS(=O)(=O)Nc1ccc(CCNc2cncc3ccccc23)cc1 [Example 63, N-(4-(2-(isoquinolin-4-ylamino)ethyl)phenyl)methanesulfonamide]
